Measured values: patent US20260262643A1, “HERBICIDAL BENZOXAZINES” (FMC CORPORATION, priority 2022, published 2026)

What was measured:
ducksalad = test: Test D flooded paddy test; assay type: in vivo, Heteranthera limosa; conditions: 250 g ai/ha, applied to paddy water, visual rating after 13 to 14 days, scale 0 to 100 (0 no effect, 100 complete control)
Summary of the method: (§1)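 Plants grown to the 2-leaf stage; pots flooded to 3 cm above soil at treatment and held at that depth throughout. Test compounds applied directly to the paddy water. After 13 to 14 days in a greenhouse, response was rated visually versus controls on a 0 (no effect) to 100 (complete control) scale.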

ryegrass, Italian [1] = test: Test C postemergence; assay type: in vivo, Lolium multiflorum; conditions: 125 g ai/ha, postemergence, 10 days; 0 to 100 scale, 0 no effect, 100 complete control
Summary of the method: (§2)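 Test material, in non-phytotoxic solvent with surfactant, was sprayed on the soil directly after seeding (preemergence) or on young plants of 2–10 cm with one to two leaves (postemergence). Greenhouse, 10 days; 0–100 visual control scale.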

barnyardgrass [2] = test: Test C postemergence; assay type: in vivo, Echinochloa crusgalli; conditions: 10 days
Summary of the method: as §2

galium = test: Test C postemergence; assay type: in vivo, Galium aparine; conditions: 10 days
Summary of the method: as §2

barnyardgrass [3] = test: Test D flooded paddy test; assay type: in vivo, Echinochloa crus-galli; conditions: 250 g ai/ha, applied to paddy water, visual rating after 13 to 14 days, scale 0 to 100 (0 no effect, 100 complete control)
Summary of the method: as §1

rice = test: Test D flooded paddy test; assay type: in vivo, Oryza sativa; conditions: 250 g ai/ha, applied to paddy water, visual rating after 13 to 14 days, scale 0 to 100 (0 no effect, 100 complete control)
Summary of the method: as §1

kochia [4] = test: Test C preemergence; assay type: in vivo, Bassia scoparia; conditions: preemergence, 0 to 100 scale (0 no effect, 100 complete control)
Summary of the method: as §2

ragweed [5] = test: Test C postemergence; assay type: in vivo, Ambrosia artemisiifolia; conditions: 125 g ai/ha, postemergence, 10 days; 0 to 100 scale, 0 no effect, 100 complete control
Summary of the method: as §2

oat, wild [6] = test: Test C postemergence; assay type: in vivo, Avena fatua; conditions: 125 g ai/ha, postemergence, 10 days; 0 to 100 scale, 0 no effect, 100 complete control
Summary of the method: as §2

corn [7] = test: Test C postemergence; assay type: in vivo, Zea mays; conditions: 10 days
Summary of the method: as §2

blackgrass [8] = test: Test C preemergence; assay type: in vivo, Alopecurus myosuroides; conditions: 0 to 100 scale (0 no effect, 100 complete control); for Plant response rating, Blackgrass: Preemergence, 500 g ai/ha, visual rating after 10 days; for Blackgrass plant response rating: Test C, preemergence, 125 g ai/ha
Summary of the method: as §2

pigweed, palmer [9] = test: Test C preemergence; assay type: in vivo, Amaranthus palmeri; conditions: preemergence, 0 to 100 scale (0 no effect, 100 complete control)
Summary of the method: as §2

wheat [10] = test: Test C preemergence; assay type: in vivo, Triticum aestivum; conditions: preemergence, 0 to 100 scale (0 no effect, 100 complete control)
Summary of the method: as §2

green foxtail [11] = test: Test C preemergence; assay type: in vivo, Setaria viridis; conditions: preemergence, 0 to 100 scale (0 no effect, 100 complete control)
Summary of the method: as §2

kochia [12] = test: Test C postemergence; assay type: in vivo, Bassia scoparia; conditions: 125 g ai/ha, postemergence, 10 days; 0 to 100 scale, 0 no effect, 100 complete control
Summary of the method: as §2

green foxtail [13] = test: Test C postemergence; assay type: in vivo, Setaria viridis; conditions: 10 days
Summary of the method: as §2

pigweed, palmer [14] = test: Test C postemergence; assay type: in vivo, Amaranthus palmeri; conditions: 125 g ai/ha, postemergence, 10 days; 0 to 100 scale, 0 no effect, 100 complete control
Summary of the method: as §2

horseweed = test: Test C postemergence; assay type: in vivo, Erigeron canadensis; conditions: 10 days
Summary of the method: as §2

oat, wild [15] = test: Test C preemergence; assay type: in vivo, Avena fatua; conditions: preemergence, 0 to 100 scale (0 no effect, 100 complete control)
Summary of the method: as §2

soybean [16] = test: Test C preemergence; assay type: in vivo, Glycine max; conditions: preemergence, 0 to 100 scale (0 no effect, 100 complete control)
Summary of the method: as §2

corn [17] = test: Test C preemergence; assay type: in vivo, Zea mays; conditions: preemergence, 0 to 100 scale (0 no effect, 100 complete control)
Summary of the method: as §2

ryegrass, Italian [18] = test: Test C preemergence; assay type: in vivo, Lolium multiflorum; conditions: preemergence, 0 to 100 scale (0 no effect, 100 complete control)
Summary of the method: as §2

soybean [19] = test: Test C postemergence; assay type: in vivo, Glycine max; conditions: 125 g ai/ha, postemergence, 10 days; 0 to 100 scale, 0 no effect, 100 complete control
Summary of the method: as §2

sedge, umbrella = test: Test D flooded paddy test; assay type: in vivo, Cyperus difformis; conditions: 250 g ai/ha, applied to paddy water, visual rating after 13 to 14 days, scale 0 to 100 (0 no effect, 100 complete control)
Summary of the method: as §1

wheat [20] = test: Test C postemergence; assay type: in vivo, Triticum aestivum; conditions: 125 g ai/ha, postemergence, 10 days; 0 to 100 scale, 0 no effect, 100 complete control
Summary of the method: as §2

ragweed [21] = test: Test C preemergence; assay type: in vivo, Ambrosia artemisiifolia; conditions: preemergence, 0 to 100 scale (0 no effect, 100 complete control)
Summary of the method: as §2

blackgrass [22] = test: Test C postemergence; assay type: in vivo, Alopecurus myosuroides; conditions: 10 days
Summary of the method: as §2

barnyardgrass [23] = test: Test C preemergence; assay type: in vivo, Echinochloa crusgalli; conditions: 0 to 100 scale (0 no effect, 100 complete control); for Plant response rating, Barnyardgrass: Preemergence, 500 g ai/ha, visual rating after 10 days; for Barnyardgrass plant response rating: Test C, preemergence, 125 g ai/ha
Summary of the method: as §2

[24] = 125 g ai/ha, postemergence, 0 to 100 scale, 0 no effect, 100 complete control
[25] = Postemergence, 500 g ai/ha, visual 0 to 100 scale (0 no effect, 100 complete control)

COC[C@H]1CN(C(=O)c2cc(-n3cnc(C(C)(C)O)n3)ccc2C)c2cccc(Cl)c2O1 [Compound 276]
90: Plant response rating, Barnyardgrass (barnyardgrass [2]; [25]) | Kochia plant response rating (kochia [4]; 500 g ai/ha) | Kochia plant response rating (kochia [4]; Test C, 125 g ai/ha) | Plant response rating, Corn (corn [7]; [25]) | Plant response rating, Blackgrass (blackgrass [8]) | Blackgrass plant response rating (blackgrass [8]) | Wheat plant response rating (wheat [10]; 500 g ai/ha) | Plant response rating, Foxtail, Green (green foxtail [13]; [25]) | Oat, Wild plant response rating (oat, wild [15]; 500 g ai/ha) | Corn plant response rating (corn [17]; 500 g ai/ha) | Ryegrass, Italian plant response rating (ryegrass, Italian [18]; 500 g ai/ha) | Ryegrass, Italian plant response rating (ryegrass, Italian [18]; Test C, 125 g ai/ha) | Plant response rating, Blackgrass (blackgrass [22]; [25]) | Barnyardgrass plant response rating (barnyardgrass [23])
50: Plant response rating, Corn (corn [7]; [24]) | Plant response rating, Horseweed (horseweed; [24]) | Corn plant response rating (corn [17]; Test C, 125 g ai/ha)
20: Plant response rating, Rice (Flood) (rice)
100: Plant response rating, Galium (galium; [24]) | Plant response rating, Galium (galium; [25]) | Pigweed, Palmer plant response rating (pigweed, palmer [9]; 500 g ai/ha) | Pigweed, Palmer plant response rating (pigweed, palmer [9]; Test C, 125 g ai/ha) | Foxtail, Green plant response rating (green foxtail [11]; 500 g ai/ha) | Foxtail, Green plant response rating (green foxtail [11]; Test C, 125 g ai/ha) | Soybean plant response rating (soybean [16]; 500 g ai/ha) | Soybean plant response rating (soybean [16]; Test C, 125 g ai/ha) | Plant response rating, Soybean (soybean [19]) | Plant response rating, Barnyardgrass (barnyardgrass [23])
35: Plant response rating, Barnyardgrass (Flood) (barnyardgrass [3])
60: Plant response rating, Ragweed (ragweed [5]) | Plant response rating, Pigweed, Palmer (pigweed, palmer [14]) | Plant response rating, Wheat (wheat [20]) | Ragweed plant response rating (ragweed [21]; Test C, 125 g ai/ha) | Plant response rating, Blackgrass (blackgrass [22]; [24])
30: Plant response rating, Barnyardgrass (barnyardgrass [2]; [24])
70: Plant response rating, Ducksalad (Flood) (ducksalad) | Plant response rating, Kochia (kochia [12])
80: Plant response rating, Ryegrass, Italian (ryegrass, Italian [1]) | Plant response rating, Oat, Wild (oat, wild [6]) | Wheat plant response rating (wheat [10]; Test C, 125 g ai/ha) | Oat, Wild plant response rating (oat, wild [15]; Test C, 125 g ai/ha) | Plant response rating, Sedge, Umbrella (Flood) (sedge, umbrella) | Ragweed plant response rating (ragweed [21]; 500 g ai/ha)
40: Plant response rating, Foxtail, Green (green foxtail [13]; [24]) | Plant response rating, Horseweed (horseweed; [25])

CCc1ccc(-n2cnc(C(C)(C)O)n2)cc1C(=O)N1C[C@H](C)Oc2c(Cl)cccc21 [Compound 277]
0: Plant response rating, Horseweed (horseweed; [24])
100: Plant response rating, Barnyardgrass (barnyardgrass [2]; [24]) | Plant response rating, Barnyardgrass (barnyardgrass [2]; [25]) | Plant response rating, Galium (galium; [24]) | Plant response rating, Galium (galium; [25]) | Plant response rating, Corn (corn [7]; [25]) | Pigweed, Palmer plant response rating (pigweed, palmer [9]; 500 g ai/ha) | Pigweed, Palmer plant response rating (pigweed, palmer [9]; Test C, 125 g ai/ha) | Foxtail, Green plant response rating (green foxtail [11]; 500 g ai/ha) | Foxtail, Green plant response rating (green foxtail [11]; Test C, 125 g ai/ha) | Soybean plant response rating (soybean [16]; 500 g ai/ha) | Ryegrass, Italian plant response rating (ryegrass, Italian [18]; 500 g ai/ha) | Plant response rating, Soybean (soybean [19]) | Plant response rating, Barnyardgrass (barnyardgrass [23]) | Barnyardgrass plant response rating (barnyardgrass [23])
80: Plant response rating, Ragweed (ragweed [5]) | Plant response rating, Oat, Wild (oat, wild [6]) | Blackgrass plant response rating (blackgrass [8]) | Wheat plant response rating (wheat [10]; 500 g ai/ha) | Plant response rating, Pigweed, Palmer (pigweed, palmer [14]) | Oat, Wild plant response rating (oat, wild [15]; Test C, 125 g ai/ha) | Corn plant response rating (corn [17]; 500 g ai/ha) | Ryegrass, Italian plant response rating (ryegrass, Italian [18]; Test C, 125 g ai/ha) | Plant response rating, Blackgrass (blackgrass [22]; [24])
40: Plant response rating, Ducksalad (Flood) (ducksalad)
70: Kochia plant response rating (kochia [4]; Test C, 125 g ai/ha) | Plant response rating, Kochia (kochia [12]) | Ragweed plant response rating (ragweed [21]; 500 g ai/ha)
98: Plant response rating, Sedge, Umbrella (Flood) (sedge, umbrella)
55: Plant response rating, Barnyardgrass (Flood) (barnyardgrass [3])
15: Plant response rating, Rice (Flood) (rice)
90: Plant response rating, Ryegrass, Italian (ryegrass, Italian [1]) | Kochia plant response rating (kochia [4]; 500 g ai/ha) | Plant response rating, Corn (corn [7]; [24]) | Plant response rating, Blackgrass (blackgrass [8]) | Plant response rating, Foxtail, Green (green foxtail [13]; [24]) | Plant response rating, Foxtail, Green (green foxtail [13]; [25]) | Oat, Wild plant response rating (oat, wild [15]; 500 g ai/ha) | Soybean plant response rating (soybean [16]; Test C, 125 g ai/ha) | Plant response rating, Blackgrass (blackgrass [22]; [25])
30: Plant response rating, Horseweed (horseweed; [25]) | Ragweed plant response rating (ragweed [21]; Test C, 125 g ai/ha)
50: Wheat plant response rating (wheat [10]; Test C, 125 g ai/ha) | Corn plant response rating (corn [17]; Test C, 125 g ai/ha) | Plant response rating, Wheat (wheat [20])
